Tests used:
[1] = Rat inverted screen test (motor impairment); details: male, Sprague-Dawley, rat, in vivo
From the text: (§1) The motor effects of Diazepam and KRM-II-81 were studied on the inverted screen. The inverted screen test is used to measure whether or not a test compound induces muscle relaxation. When a test subject is placed on a wire screen which is then inverted, the reaction is to climb to the opposite side so they are no longer hanging upside down.
(§2) Male, Sprague Dawley rats (Harlan Sprague Dawley, Indianapolis, Ind.) were used and weighed 90-110 g when evaluated in experiments. […] Rats were placed onto the top of a wire screen, which was then inverted so that the rats were hanging upside down.
(§3) Male Sprague-Dawley rats (n=5) were dosed i.p. (vehicle=1% carboxymethyl cellulose) with diazepam (3, 10, or 30 mg/kg), KRM-II-81 (10, 30, or 60 mg/kg) or HZ-166 (30 mg/kg) 30 minutes prior to testing. Rats were placed onto the top of a wire screen, which was then inverted so that the rats were hanging upside down. […] Results were analyzed using ANOVA (Dunnett's test: *P<0.05).
(§4) For the in vivo assays, minimal effective doses (MED) were calculated in mg/kg. MED was defined as the lowest dose administered that produced statistically significant protection compared to vehicle control in the anticonvulsant assays. The MED, or minimal toxic dose (MTD) for motor impairment, was the minimal dose required to produce statistically-significant impairment in motor performance. Doses tested are shown in the figures and tables and are generally dosed in ½ log increments. The protective index (PT) was calculated at the MTD/MED.

[2] = system: motor performance on an inverted screen; assay: Rat inverted screen test (motor impairment); details: rats
From the text: as §1, §2, §3, §4

[3] = system: electroshock-induced seizures; assay: Mouse electroshock-induced seizure model; type: in vivo; details: mice; for Electroshock to Criteria: MED producing maximal protection (0% seizures); for Electroshock (minimal effective dose, MED): lowest dose with statistically significant protection vs vehicle
Description: This assay detects effects of compounds that produce generalized seizures and those that dampen seizure spread. Male, CD1 mice (Taconic Farms) were studied at weights of 21-32 g. Mice=10/dose) were used with Wahlquist Model H stimulator with 0.2 sec stimulation with corneal electrodes. […] Mice were euthanized immediately following the test. Tonic extension was used as the primary endpoint.
as §4

[4] = system: seizures in amygdala kindled rats; assay: Basolateral amygdala kindling; type: in vivo; details: for After-Discharge Duration to Criteria: MED for producing after-discharge duration ≤30 sec; for After-Discharge Threshold to Criteria: MED for producing after-discharge threshold ≥3; for Seizure Severity to Criteria: MED for producing seizure severity score ≤2; for After-Discharge Duration Potency (MED) / After-Discharge Threshold Potency (MED) / Seizure Severity Poteny (MED) / effect on adjusted after-discharge threshold (ADT) / effect on after-discharge duration (ADD) / effect on seizure severity score / kindling measures / Seizure free scores (seizure severity=0): amygdala kindled rats; for Seizure free scores (seizure severity=0): groups of 8
Description: Seizure kindling models evaluate effects of drugs on the sensitization of the nervous system to seizure induction. In this test, drugs were evaluated for their ability to impact seizure parameters in rats that were fully kindled by daily electrical stimulation of their amygdala. Valproic acid was used as a positive control. Experiments were conducted using the general procedures of Zwart et al. (J. Pharmacol. Exp. Ther., 2014, 351:124-133). A bipolar electrode for electrical stimulation and EEG recording was stereotaxically implanted into one hemisphere of the basolateral amygdala (AP −2.2, ML −4.8, DV −8.5 mm, relative to bregma) of male Wistar rats. After post-operative recovery, electrical kindling begins, where a subthreshold constant current (400 μA, 1 ms, monophasic square-wave pulses, 60 Hz for 1 sec) is given once a day Monday-Friday for about 4-6 weeks until a rat is fully kindled. A fully kindled rat has experienced 10 consecutive stage 5 seizures or 10 of its last 12 were stage 5 according to the Racine Scale.
Twelve fully kindled rats were assigned to this study, and eight rats were selected and randomized to initial compound treatment groups from baseline after discharge threshold (ADT), seizure severity score, and after discharge duration (ADD). […] On test day, rats were dosed 30 min prior to beginning stimulation. After the pre-treatment, rats were stimulated using an ascending staircase sequence beginning at 10 μA and increasing in log unit steps of 10, 16, 25, 40, 65, 100, 160, 250, and 400 μA. Animals were stimulated until they were assigned a Seizure Severity Score for a visually observably seizure or they reached the 400 μA threshold limit. ADD was determined following testing. ADT was the current that induced a seizure; measurements were scale-adjusted to capture the stimulation scale change required to observe a seizure from the previous baseline to the ADT scored on test day. […] The average scale adjusted ADT was approximately 0.63 μA in vehicle treated rats.
Racine score of behavioral response to stimulation: 0=no behavioral response; 1=immobility, staring and/or facial clonus; 2=head nodding, jaw clonus, and/or tongue protrusion; 3=unilateral forelimb clonus; 4=bilateral forelimb clonus and/or rearing; 5=bilateral forelimb clonus with rearing and loss of balance.
After-Discharge Duration (ADD) is the duration of the first after-discharge.
ADT, ADD, and severity scores were analyzed by ANOVA. Seizure severity data was also analyzed by the nonparametric Skillings-Mack test, a generalization of the Friedman test for one-way repeated measures designs. Posthoc tests when reported were either by Dunnett's method (seizure severity) or using Wilcoxon sign rank tests (ADT and ADD). Valproic acid, used as a positive control was not used in ANOVA calculations.

[5] = system: PTZ seizure threshold; assay: Pentylenetetrazole (PTZ, i.v.)-induced seizure threshold; type: in vivo, rats; details: for PTZ Threshold to Criteria: MED for producing ≥2× PTZ seizure threshold at baseline; for PTZ Threshold Poteny (MED): lowest dose with statistically significant effect, PTZ i.v.; for PTZ Threshold Poteny (MED) / effect on dose of PTZ required to induce convulsions: rats; for effect on dose of PTZ required to induce convulsions: PTZ i.v. infusion, pretreatment 30 min
Description: Male […] Sprague-Dawley rats (Indianapolis, Ind.) were randomly assigned to treatment groups and dosed with vehicle (vehicle=1% carboxymethyl cellulose) with diazepam (0.1, 0.3, or 1 mg/kg) or test compound (3, 10, 30, or 60 mg/kg) 30 minutes prior to testing. Rats were placed in a restrainer and a winged infusion needle was inserted into the lateral tail vein. Intravenous infusion with 10 mg/ml PTZ at a rate of 0.5 ml/min was initiated until a clonic convulsion occurred, and the time to clonic convulsion was recorded in sec or a maximum of 4 min was recorded. Following infusion, rats are euthanized. The dose of PTZ required to elicit a clonic convulsion was calculated using the infusion rate, concentration of PTZ, time to clonic convulsion, and animal weight.

[6] = system: PTZ-induced clonus; assay: Pentylenetetrazole (PTZ, 35 mg/kg s.c.)-induced clonic convulsions; type: in vivo; details: rats; for PTZ Clonus to Criteria 1: MED producing maximal protection (0% seizures); for PTZ Clonus Potency (MED): lowest dose with statistically significant protection; for PTZ Clonus Potency (MED) / protection against PTZ-induced clonus: PTZ 35 mg/kg s.c.
Description: After the inverted screen test, the rats were dosed with pentylenetetrazole (PTZ)(35 mg/kg, s.c.) in a volume of 1 ml/kg and placed in an observation cage (40.6×20.3×15.2 cm) with a floor containing […] of wood chip bedding material. PTZ dose was determined to be ˜EC97 for producing clonic convulsions.

SMILES	Electroshock to Criteria [3]	Electroshock (minimal effective dose, MED) [3]	protection against electroshock-induced seizures [3]	After-Discharge Duration to Criteria [4]	After-Discharge Threshold to Criteria [4]	Seizure Severity to Criteria [4]	After-Discharge Duration Potency (MED) [4]	After-Discharge Threshold Potency (MED) [4]	Seizure Severity Poteny (MED) [4]	effect on adjusted after-discharge threshold (ADT) [4]	effect on after-discharge duration (ADD) [4]	effect on seizure severity score / kindling measures [4]	Seizure free scores (seizure severity=0) [4]	PTZ Threshold to Criteria [5]	PTZ Threshold Poteny (MED) [5]	effect on dose of PTZ required to induce convulsions [5]	PTZ Clonus to Criteria 1 [6]	PTZ Clonus Potency (MED) [6]	protection against PTZ-induced clonus [6]	further results
C#Cc1ccc2c(c1)C(c1ccccn1)=NCc1c(-c3cnco3)ncn1-2 [KRM-II-81, 5-(8-ethynyl-6-(pyridin-2-yl)-4H-benzo[f]imidazo[1,5-a][1,4]diazepin-3-yl)oxazole]	30 mg/kg	10 mg/kg	fully prevented	10 mg/kg	10 mg/kg	10 mg/kg	10 mg/kg	10 mg/kg	10 mg/kg	significantly increased	significant decreases	most efficacious and potent	7/8	30 mg/kg	10 mg/kg	increased the dose of PTZ required to induce convulsions	30 mg/kg	30 mg/kg	fully prevented	ED50 at 30 min ([1]; ip): 121 mg/kg; muscle relaxation on inverted screen (result in words) ([2]; i.p., 30 min prior, KRM-II-81 10-60 mg/kg, HZ-166 30 mg/kg): Neither HZ-166 nor KRM-II-81 induced significant muscle relaxation; dose at which signs of muscle relaxation began to appear ([2]; i.p., inverted screen): 60 mg/kg; dose of PTZ required to induce convulsions ([5]; pretreated with 10 mg/kg of KRM-II-81, vehicle baseline 35.1±1.2 mg/kg): 71 mg/kg
C#Cc1ccc2c(c1)C(c1ccccc1)=NCc1c(-c3cnco3)ncn1-2 [KRM-II-82, 5-(8-ethynyl-6-phenyl-4H-benzo[f]imidazo[1,5-a][1,4]diazepin-3-yl)oxazole]	30 mg/kg	30 mg/kg	fully prevented	>30 mg/kg	30 mg/kg	>30 mg/kg	>30 mg/kg	10 mg/kg	10 mg/kg	significantly increased	trend for a significant effect	trend toward efficacy	1/8	30 mg/kg	10 mg/kg	increased the dose of PTZ required to induce convulsions	30 mg/kg	10 mg/kg	dose-dependently suppressed	MTD at 60 seconds ([1]; intraperitoneal): 150 mg/kg; effect on motor performance ([2]; up to 30 mg/kg, inverted screen): without significant effect on motor performance
